Data as given in publication PMC2848589, “Raltegravir Is a Potent Inhibitor of XMRV, a Virus Implicated in Prostate Cancer and Chronic Fatigue Syndrome” (PLoS ONE, 2010).

Assays:
[1] = Cytotoxicity in PBM cells; format: cell-based; settings: human, read-out: HIV-1 in PBM cells CC50
Procedure: (§1) Each well was carefully monitored for signs of cellular toxicity due to the inhibitors by microscopic observation every 24 h. In addition, cell viability was measured using the CellTiter 96 AQueous One Solution cell proliferation assay according to the manufacturer (Promega, Madison, Wis). Viral release from the cells was assayed by measuring RT activity in the supernatant. For this, supernatant from each well was collected every 24 h and frozen at −20°C until it was analyzed by RT assay for viral release as described previously. In brief, oligo(dT)·poly(rA) primer-template assays were performed in the presence of radiolabeled [α-^32P]dTTP and Mn^2+. After incubating the viral supernatants with the RT reaction mix for 1 h at 37°C, samples were spotted onto DE81 DEAE cellulose paper (Whatman) and unincorporated label washed away with 2× SSC (1× SSC = 0.15 M NaCl and 0.015 M sodium citrate). […] Inhibition of viral release as measured on day 6 after inoculation was averaged over 3–5 experiments and plotted. The antiviral EC50 and cytotoxic concentrations (CC50,) was determined from the concentration–response curve using the median effect method. HIV-1 replication assays were performed as described previously using peripheral blood mononuclear cells (PBMC) obtained from the American Red Cross, Atlanta, GA, that were stimulated with phytohemagglutinin (PHA) for 72 hr.

[2] = tested on: XMRV; assay: XMRV replication in LNCaP cells (viral release by RT activity in supernatant); format: cell-based; settings: for EC50: read-out: EC50 in LNCaP cells; for EC90: read-out: EC90 in LNCaP cells
Procedure: (§2) We tested a total of 45 compounds belonging to different classes of HIV-1 inhibitors, and a few inhibitors of viruses other than retroviruses, for their ability to inhibit XMRV replication in cultured cells. LNCaP and MCF-7 cells were chosen for their ability to support robust in vitro replication of XMRV. […] To determine if a reduction in viral release might be due to toxicity of the compound and not due to specific antiretroviral activity, cellular morphology was monitored every 24 h by microscopic examination, and an MTT [3-(4,5-dimethylthiazol-2-yl)-2,5-diphenyltetrazolium bromide] colorimetric assay was used to measure potential cytotoxicity produced by the compounds. Supernatants were collected every 24 h and assayed for viral release by measuring RT activity. […] For comparison purposes, all compounds evaluated in these studies were also tested against HIV-1LAI in primary human lymphocytes.
Viral release from XMRV-infected LNCaP cells in the presence of increasing concentrations of (A) ZDV (B) TDF (C) RAL and (D) L-000870812, was determined by measuring RT activity in the supernatants. […] Cell viability was checked by microscopy, quantified by the MTT assay, and represented by shaded bars. Data for each compound were derived from an average of at least three independent experiments, each performed in duplicate.
293T cells (ATCC, CRL-11268) were transfected with pXMRV1, an infectious clone of XMRV [2]. Virus released in the supernatant was harvested and titrated by inoculating MCF-7 cells, a breast cancer cell line (ATCC, HTB-22) at 70% confluence, with a series of ten-fold dilutions of XMRV in serum-free medium, followed 36–48 hrs later by fixation of cells in paraformaldehyde and processing for immunofluorescence using a rabbit antiserum developed against inactivated XMRV [2]. […] Virus was diluted in serum-free medium and used to inoculate cells at a multiplicity of infection (MOI) of approximately 3, in the presence of various antiviral compounds as described below. LNCaP, a prostate cancer cell line (ATCC, CRL-1740) and MCF-7 cells were grown to about 50% confluence in DMEM containing 10% heat inactivated fetal bovine serum, […]. Cells were washed twice with Dulbecco's phosphate buffered saline (DPBS, Gibco), and incubated with the viral inoculum for 90 min at 37°C in the presence of 95% air and 5% CO2, cells were washed twice with DPBS, detached with Trypsin-EDTA (0.25% Trypsin; Cellgro), and counted. One thousand cells were added to each well of a 96-well plate, along with an equal volume of medium containing the retroviral inhibitor at 2-fold the desired concentration. […] For controls, wells containing water or DMSO at appropriate concentrations were used.
Each well was carefully monitored for signs of cellular toxicity due to the inhibitors by microscopic observation every 24 h. In addition, cell viability was measured using the CellTiter 96 AQueous One Solution cell proliferation assay according to the manufacturer (Promega, Madison, Wis). Viral release from the cells was assayed by measuring RT activity in the supernatant. For this, supernatant from each well was collected every 24 h and frozen at −20°C until it was analyzed by RT assay for viral release as described previously. In brief, oligo(dT)·poly(rA) primer-template assays were performed in the presence of radiolabeled [α-^32P]dTTP and Mn^2+. After incubating the viral supernatants with the RT reaction mix for 1 h at 37°C, samples were spotted onto DE81 DEAE cellulose paper (Whatman) and unincorporated label washed away with 2× SSC (1× SSC = 0.15 M NaCl and 0.015 M sodium citrate).

[3] = tested on: XMRV; assay: XMRV replication in MCF-7 cells (viral release by RT activity in supernatant); format: cell-based; settings: for EC50 / EC90: MCF7, 144 h; for EC50: read-out: XMRV in MCF-7 cells EC50; for EC90: read-out: XMRV in MCF-7 cells EC90; for therapeutic index (TI, the ratio of CC50/EC50): XMRV, MCF-7 cells; for activity against XMRV (in words): tested up to 100 µM, Figure 1
[4] = tested on: HIV-1LAI; assay: HIV-1 replication in PHA-stimulated peripheral blood mononuclear cells; format: cell-based; settings: Human immunodeficiency virus 1, PBMC; for EC50: read-out: HIV-1 in PBM cells EC50; for EC90: read-out: HIV-1 in PBM cells EC90
Procedure: as §2, §1

[5] = Cytotoxicity in MCF-7 cells (MTT / CellTiter 96 AQueous One); format: cell-based, human; settings: human
Procedure: as §2, §1

[6] = peripheral blood mononuclear (PBM) cells
[7] = XMRV-infected MCF-7 cells, RT activity in supernatant, day 6
[8] = MCF-7 cells, read-out: XMRV in MCF-7 cells CC50

| SMILES | CC50 [1, 6] | EC50 ([2]; LNCaP) | EC90 ([2]; LNCaP) | EC50 [3] | EC90 [3] | therapeutic index (TI, the ratio of CC50/EC50) [3] | EC50 [4] | EC90 [4] | CC50 [5] | CC50 [1] | EC50 ([2]; XMRV-infected LNCaP cells) | EC90 ([2]; XMRV-infected LNCaP cells) | EC50 [3, 7] | EC90 [3, 7] | CC50 [5, 8] | activity against XMRV (in words) [3] |
| --- | --- | --- | --- | --- | --- | --- | --- | --- | --- | --- | --- | --- | --- | --- | --- | --- |
| Cc1cn([C@H]2C[C@H](N=[N+]=[N-])[C@@H](CO)O2)c(=O)[nH]c1=O [3'-Azido-3'-deoxythymidine (ZDV), 3'-Azido-3'-deoxythymidine] | > 100 µM | 0.14 µM | 1.1 µM | 0.11 µM | 7.3 µM | 591 | 0.0052 µM | 0.036 µM | 65 µM |  |  |  |  |  |  |  |
| Cc1nnc(C(=O)NC(C)(C)c2nc(C(=O)NCc3ccc(F)cc3)c(O)c(=O)n2C)o1 [Raltegravir (RAL, MK-0518), Raltegravir] |  |  |  |  |  | 18,460 | 0.0014 µM | 0.0089 µM |  | > 100 µM | 0.03 µM | 0.46 µM | 0.005 µM | 3.5 µM | 92.3 µM |  |
| O=C1Nc2ccc(Cl)cc2[C@@](C#CC2CC2)(C(F)(F)F)O1 [Efavirenz] | 18.4 µM |  |  | 51.6 µM | 93 µM |  | 0.00073 µM | 0.0027 µM |  |  |  |  |  |  | 60.4 µM | did not demonstrate any major activity |
| Nc1nc2c(ncn2CCC(CO)CO)c(=O)[nH]1 [Penciclovir (PCV), Penciclovir] | > 100 µM |  |  | > 100 µM | > 100 µM |  | > 100 µM | > 100 µM | 98.1 µM |  |  |  |  |  |  |  |
| Nc1nc(O)c2ncn(COC(CO)CO)c2n1 [Ganciclovir (GCV), Ganciclovir] | > 100 µM |  |  | > 100 µM | > 100 µM |  | > 100 µM | > 100 µM | > 100 µM |  |  |  |  |  |  |  |
| Cc1c(O)cccc1C(=O)N[C@@H](CSc1ccccc1)[C@H](O)CN1C[C@H]2CCCC[C@H]2C[C@H]1C(=O)NC(C)(C)C [Nelfinavir] | 73.8 µM |  |  |  | > 100 µM |  | 0.018 µM | 0.067 µM | 7.4 µM |  |  |  | 34.3 µM |  |  |  |
| Nc1ccn([C@@H]2CS[C@H](CO)O2)c(=O)n1 [Lamivudine (3TC), Lamivudine] | 41.9 µM |  |  | > 100 µM | > 100 µM |  | 0.085 µM | 0.36 µM | > 100 µM |  |  |  |  |  |  | essentially inactive |
| CC(C)CN(C[C@@H](O)[C@H](Cc1ccccc1)NC(=O)O[C@H]1CCOC1)S(=O)(=O)c1ccc(N)cc1 [Amprenavir] | > 100 µM |  |  |  | > 100 µM |  | 0.027 µM | 0.1 µM |  |  |  |  | 68 µM |  | 94.1 µM |  |
| Cc1cccc(C)c1OCC(=O)N[C@@H](Cc1ccccc1)[C@@H](O)C[C@H](Cc1ccccc1)NC(=O)[C@H](C(C)C)N1CCCNC1=O [Lopinavir] | 36 µM |  |  |  | > 100 µM |  | 0.011 µM | 0.029 µM | 8.5 µM |  |  |  | 72.2 µM |  |  |  |
| NC(=O)c1ncn([C@@H]2O[C@H](CO)[C@@H](O)[C@H]2O)n1 [Ribavirin (RBV), Ribavirin] | > 100 µM |  |  | 53 µM | > 100 µM |  | 6.4 µM | > 100 µM | 74.1 µM |  |  |  |  |  |  |  |
| Nc1ccn(C[C@@H](CO)OCP(=O)(O)O)c(=O)n1 [Vistide (HPMPC), Vistide] | > 100 µM |  |  | 85.3 µM | > 100 µM |  | > 100 µM | > 100 µM |  |  |  |  |  |  | > 100 µM |  |
| Nc1ccn([C@H]2CC[C@@H](CO)O2)c(=O)n1 [Zalcitabine (ddC), Zalcitabine] | > 100 µM |  |  | > 100 µM | > 100 µM |  | 0.044 µM | 0.31 µM | 89.8 µM |  |  |  |  |  |  |  |
| O=c1[nH]cnc2c1ncn2[C@H]1CC[C@@H](CO)O1 [Videx (DDI), Videx] | > 100 µM |  |  | > 100 µM | > 100 µM |  | 0.29 µM | 2.2 µM | > 100 µM |  |  |  |  |  |  | essentially inactive |
| CC(C)(C)NC(=O)[C@@H]1CN(Cc2cccnc2)CCN1C[C@@H](O)C[C@@H](Cc1ccccc1)C(=O)N[C@H]1c2ccccc2C[C@H]1O [Indinavir] | > 100 µM |  |  | > 100 µM | > 100 µM |  | 0.018 µM | 0.064 µM | 69.9 µM |  |  |  |  |  |  | essentially ineffective |
| O=C(O)P(=O)(O)O [Foscarnet (PFA), Foscarnet] | > 100 µM |  |  | 41.9 µM | > 100 µM |  | 26.9 µM | 71.9 µM |  |  |  |  |  |  | > 100 µM |  |
